Test results from patent US8481711B2, “Neurite outgrowth agent” (Hidenori Kamanishi, priority 2010, dated 2013).

Columns and labels:
Format in all cases: cell-based
[1] = test system: UF-1 cells; assay: Growth suppression of retinoic acid-resistant leukemia cells (cell count); settings: tested 0, 2.0, 4.0, 8.0 μg/mL, 28 days, t-test p<0.05 (FIG. 19)
Procedure: (§1) The number of retinoic acid-resistant leukemia cells (UF-1 cells) was adjusted to 1.0×10^4 cells/mL. The thus prepared UF-1 cells were cultured in an RPMI medium, to which calf serum had been added to a final concentration of 10% and to which the NAD analogue of the present invention had also been added in various concentrations of 0, 2.0, 4.0, and 8.0 μg/mL. After 28 days passed, the number of cells was counted.
Analysis was carried out by a t-test. It was determined that p<0.05 indicated a significant difference. […] A differentiation induction therapy using retinoic acid has conventionally been carried out for the treatment of myeloid leukemia cells. It has been known that the leukemia cells eventually become resistant to retinoic acid, and thus the effect of retinoic acid becomes deactivated. However, from the results of the test using the NAD analogue of the present invention, it was confirmed that the NAD analogue of the present invention has an action to suppress the growth of even leukemia cells, which have acquired resistance to retinoic acid. In general, cells are not cultured for such a long period of time. The above-mentioned results were epoch-making in the sense that they were found after the culture for 28 days.

[2] = test system: HT29 cells; assay: Growth suppression of human colon-adenocarcinoma cells (cell count); settings: tested 0, 2.0, 4.0, 8.0 μg/mL, 7 days, t-test p<0.05 (FIG. 21)
Procedure: as §1, with “human colon-adenocarcinoma” for “retinoic acid-resistant leukemia”, “(HT29” for “(UF-1”, “Thus” for “The thus”, “HT29” for “UF-1”, “Eagle's MEM” for “RPMI”, “7” for “28”
(§2) Analysis was carried out by a t-test. It was determined that p<0.05 indicated a significant difference.

[3] = test system: HT1080 cells; assay: Growth suppression of human fibrosarcoma cells (cell count); settings: tested 0, 2.0, 4.0, 8.0 μg/mL, 7 days, t-test p<0.05 (FIG. 20)
Procedure: as §1, with “human fibrosarcoma” for “retinoic acid-resistant leukemia”, “(HT1080” for “(UF-1”, “Thus” for “The thus”, “HT1080” for “UF-1”, “Eagle's MEM” for “RPMI”, “7” for “28”
as §2

[4] = test system: HL-60 cells; assay: Growth suppression of human myeloid leukemia cells (cell count); settings: tested 0, 2.0, 4.0, 8.0 μg/mL, 5 days, t-test p<0.05 (FIG. 17)
Procedure: as §1, with “human myeloid” for “retinoic acid-resistant”, “(HL-60” for “(UF-1”, “HL-60” for “UF-1”, “Eagle's MEM” for “RPMI”, “5” for “28”
as §2

[5] = test system: Neuro-2a cells; assay: Neurite outgrowth in mouse neuroblastoma Neuro-2a cells (phase-contrast microscopy); settings: 10 μg/mL, 48 hours culture, vs control without compound
Procedure: Using mouse-derived neuroblastoma cells that are model cells used to examine neurite outgrowth effect, the inductive action of the NAD analogue of the present invention on the outgrowth of neurites was examined. Mouse-derived neuroblastoma cells (Neuro-2a cells) (obtained from the Health Science Research Resources Bank) were adjusted to a concentration of 10^6 cells/mL, and the cells were then cultured at 37° C. in a 10% fetal bovine serum-added Eagle's minimal essential (EME) medium culture solution in the presence of 5% CO2.
The above-described Neuro-2a cells were cultured for 3 hours, and the medium was then exchanged with a fresh one of the same type as described above. Then, 10 μg/mL of the NAD analogue of the present invention was added thereto, and the culture was further continued for 48 hours. Thereafter, the morphological alteration of the cell was observed under a phase-contrast microscope. […] However, when compared with the case of adding the NAD analogue of the present invention to the cells, the length of such a neurite was apparently short. Moreover, the same experiment as described above was carried out using commercially available β-NAD.

[6] = test system: fetal rat midbrain dopaminergic nerve cells; assay: Neurite outgrowth in fetal rat midbrain dopaminergic nerve cells (anti-tyrosine hydroxylase immunostaining, Neurolucida); settings: for length of neurites elongated from the cell bodies (concentration dependence): 0.01, 0.1, 1.0 and 10 μg/mL, vs control (FIG. 6)
Procedure: Fetuses were removed from a Sprague-Dawley (SD) rat that was 15 days pregnant, and a ventral portion of midbrain was then cut out under a stereoscopic microscope. The obtained portion was chopped with a surgical knife, and was then treated at 37° C. in a 0.25% trypsin-containing PBS for 20 minutes, so that the cells were dispersed. Thereafter, the resulting cells were treated with PBS that contained 50 μg/mL deoxyribonuclease (DNase I) and 50 μg/mL trypsin inhibitor at 37° C. for 5 minutes, so as to obtain fetal rat midbrain dopaminergic nerve cells. The thus obtained fetal rat midbrain dopaminergic nerve cells were cultured at 37° C. in a 10% bovine serum-added Dulbecco's modified Eagle's medium (DMEM) culture solution in the presence of 5% CO2.
The above-described fetal rat midbrain dopaminergic nerve cells were cultured for 2 days, and the culture solution was then exchanged with a fresh one. The NAD analogue of the present invention was added to the cells in various concentrations of 0 (control), 0.01, 0.1, 1.0 and 10 μg/mL, and the obtained mixture was further cultured for 3 days. On the 5th day of the culture, the dopaminergic nerve cells were stained with an anti-tyrosine hydroxylase antibody (manufactured by Pel-Freez) and a Fluorescein (FITC)-labeled secondary antibody (manufactured by Jackson ImmunoResearch Laboratories, Inc.) according to an immunostaining method. Then, the length and number of neurites elongated from the cell bodies of the stained cells were then measured using Neurolucida (manufactured by Micro Bright Field). […] Moreover, the same experiment as described above was carried out using commercially available β-NAD.
The lengths of neurites elongated from the cells were measured, and a comparison was made on the measurement results. When 10 μg/mL of the NAD analogue of the present invention was added to the cells, the length of the obtained neurite became approximately 150% if the length of a neurite in the control was defined as 100%. […] It is noted that 45 control cells and 38 test cells were subjected to the measurement, and the results were shown as average values.
FIG. 8 is a graph showing a quantitative change in the effect of the NAD analogue of the present invention to allow neurites to elongate from fetal rat brain dopaminergic cells. […] Moreover, the same experiment as described above was carried out using commercially available β-NAD.

[7] = test system: HL-60 cells; assay: Apoptosis induction in human myeloid leukemia cells (nuclear staining, DNA electrophoresis)
Procedure: The number of human myeloid leukemia cells (HL-60 cells) was adjusted to 1.0×10^4 cells/mL. The thus prepared HL-60 cells were cultured in an RPMI medium, to which calf serum had been added to a final concentration of 10% and to which the NAD analogue of the present invention had also been added in a concentration of 10 μg/mL or 20 μg/mL. Four days later, the cells were subjected to nuclear staining, and they were then observed under a fluorescence microscope. Furthermore, DNA was extracted from the cells according to an ordinary method and was then electrophoresed.

[8] = test system: NB-1 cells; assay: Neurite outgrowth in human neuroblastoma-derived NB-1 cells (phase-contrast microscopy); settings: 10 μg/mL; for morphological alteration of the cells (neurite outgrowth): NB-1 cells 10^3 cells/mL, observed on the 10th day (FIG. 15)
Procedure: Using human neuroblastoma cell-derived cells as model cells for neurite outgrowth, the action of the NAD analogue of the present invention to induce the outgrowth of neurites was examined. Human-derived neuroblastoma cells (NB-1 cells) (obtained from the Health Science Research Resources Bank) were adjusted to a concentration of 10^3 cells/mL, and the cells were then cultured at 37° C. in a 10% fetal bovine serum-added Eagle's minimal essential medium (EME) culture solution in the presence of 5% CO2.
The above-described NB-1 cells were cultured for 3 hours, and the medium was then exchanged with a fresh one of the same type as described above. Then, 10 μg/mL of the NAD analogue of the present invention was added thereto, and the culture was further continued. Thereafter, the morphological alteration of the cells was observed under a phase-contrast microscope. During the culture, the culture solution was exchanged with a fresh one every 4 or 5 days. […] However, when compared with the case of adding the NAD analogue of the present invention to the cells, the length of such a neurite was apparently short. Moreover, the same experiment as described above was carried out using commercially available β-NAD.
The number of human neuroblastoma-derived cells (NB-cells), which were to be used as model cells for studying neurite outgrowth effect, was adjusted to 10^6 cells/mL. Thus prepared NB-1 cells were cultured in an Eagle's MEM medium, to which calf serum had been added to a final concentration of 10% and to which 10 μg/mL of the NAD analogue of the present invention had also been added. After 7 days passed, the morphological alteration of the cells was observed under a phase-contrast microscope at a magnification of 200 times.

Row | Compound | concentration at which growth of the UF-1 cells was significantly suppressed [1] | concentration at which growth of the cells was significantly suppressed [2] | concentration at which growth of the cells was significantly suppressed [3] | concentration at which growth of the HL-60 cells was obviously suppressed [4] | morphological alteration of the cell (neurite outgrowth) [5] | length of the neurite (control defined as 100%) ([6]; 10 μg/mL, average of 38 test cells vs 45 control cells (FIG. 7)) | length of neurites elongated from the cell bodies (concentration dependence) ([6]; 3 days) | concentration whose addition allows neurites to elongate ([6]; fetal rat brain dopaminergic cells (FIG. 8)) | formation of varicosities on the projection ([6]; fetal rat midbrain nerve cells, 0 to 10 μg/mL, 3 days) | shape of the nucleus (nuclear staining, fluorescence microscope) ([7]; HL-60 cells cultured for 4 days with compound (FIG. 18B)) | DNA fragmentation (electrophoresis of extracted DNA) ([7]; HL-60 cells, 10 μg/mL or 20 μg/mL, 4 days (FIG. 18C lanes 3 and 4)) | morphological alteration of the cells (neurite outgrowth) [8] | morphological alteration of the cells (neurite-like structures) ([8]; NB-1 cells 10^6 cells/mL, after 7 days (FIG. 16)) | outgrowth of neurites (same experiment as FIG. 8) ([6]; fetal rat brain dopaminergic cells)
1 | 3-(aminocarbonyl)-1-[5-O-[[1-(6-amino-9H-purin-9-yl)-1-deoxy-β-D-ribofuranose-5-O-yl]phosphonyloxy(oxylato)phosphinyl]-β-L-ribofuranosyl]pyridinium [NAD analogue of the present invention] | ≥ 8.0 µg/mL | ≥ 2 µg/mL | ≥ 4.0 µg/mL | ≥ 2.0 µg/mL | neurites (nerve axon-like projections) appeared from Neuro-2a cells and that these neurites elongated from the cells | approximately 150% | the higher the concentration of the NAD analogue of the present invention in the fetal rat midbrain nerve cells, the longer a neurite | 0.1 µg/mL | forms a large number of knobby, what is called “varicosities” on the projection | the breakage of the nucleus in the HL-60 cell was clearly observed | fragmentation of the DNA due to apoptosis was observed in the form of a “ladder.” | neurites (nerve axon-like projections) appeared from NB-1 cells and that these neurites elongated from the cells | neurite-like structures elongated more significantly | 
2 | NC(=O)c1ccc[n+]([C@@H]2O[C@H](COP(=O)([O-])OP(=O)(O)OC[C@H]3O[C@@H](n4cnc5c(N)ncnc54)[C@H](O)[C@@H]3O)[C@@H](O)[C@H]2O)c1 [β-NAD, reference compound] |  |  |  |  | no change in neurites was found |  | the outgrowth of neurites was not observed |  |  |  |  | no change in neurites was found |  | the outgrowth of neurites was not observed
